Source: patent publication US20090291919A1, “Compositions and Methods for Treating or Preventing Ophthalmic Light Toxicity” (University of Florida Research Foundation, Inc., priority 2006, published 2009)
Entries after “also recorded” stand apart in the source; their conditions may differ.

What was measured:
[1] = test system: purified wt (wild-type) opsin; test: Pigment formation of compound alone with opsin (500 nm absorbing pigment); details: compound added to opsin without 11-cis-retinal
Protocol: (§1) To test whether this compound associates with wild-type (WT) opsin to form pigment, it was added to opsin solution in vitro.

purified WT opsin = test: Opsin regeneration: pigment (rhodopsin) formation with 11-cis-retinal in presence of compound; details: for inhibition of pigment formation of opsin with 11-cis-retinal / of binding of 11-cis-retinal to opsin: in vitro, result in words
Protocol: In a typical competition assay of the invention, a compound is sought that will tie up the retinal binding pocket of the opsin protein. Thus, the assay seeks to identify a non-retinoid compound (one that will not be tightly regulated by the retina as to amount entering rod cells) that competes with 11-cis-retinal. Over time this will slow the rate of formation of rhodopsin relative to the rate when 11-cis-retinal alone is present. In one embodiment, the assay is conducted in the presence of 11-cis-retinal, and the rate of formation of rhodopsin is measured as a way of determining competition for the retinal binding pocket, for example, by determining the rate of increase in the 500 nm peak characteristic for rhodopsin. No antibodies for rhodopsin are required for this assay.

[2] = Absorption of the compound by itself in the visible spectrum
Protocol: as §1

SMILES	formation of a 500 nm absorbing pigment with opsin [1]	inhibition of pigment formation of opsin with 11-cis-retinal / of binding of 11-cis-retinal to opsin (purified WT opsin)	absorption in the visible spectrum [2]	extent of inhibition of regeneration compared with β-ionone (purified WT opsin; SN10011 2 and 5 mM vs β-ionone)	inhibition of pigment formation of opsin with 11-cis-retinal / of binding of 11-cis-retinal to opsin (purified WT opsin; listed as SN 10011)
CC(=O)/C=C/C1=C(C)CCCC1(C)C [β-ionone, reference compound]	does not form a light absorbing pigment; also recorded: does not itself form a 500 nm absorbing pigment; also recorded: no 500 nm absorbing pigment was formed	inhibit binding of retinal to the site; also recorded: inhibited opsin regeneration in a dose dependent manner			
CC(=O)c1c(C)n[nH]c1C [SN10011, 1-(3,5-dimethyl-1H-pyrazol-4-yl)ethanone]	No pigment was formed; also recorded: no 500 nm absorbing pigment was generated	reversibly inhibits binding of 11-cis-retinal; also recorded: significant effect on inhibition of pigment formation; also recorded: inhibited	did not show any absorption in the visible spectrum; also recorded: does not absorb in the visible spectrum	much lower	inhibits the binding of 11-cis-retinal to opsin in vitro
